Laboratory results taken from US8895695B2, “Template-fixed beta-hairpin peptidomimetics with CXCR4 antagonizing activity” (priority 2003, dated 2014).
Numbered stars: 1 amine (or outer) side, 2 acyl side, 3 side chain; on linkers, the order of the positions; unused ones are H or OH. Bridge positions count the residues as written; N and C are the ends. Square brackets hold non-standard residues; d marks the D form. Peptide text beside a SMILES is read from it. N(3-imidazol-1-ylpropyl)Gly = O=C(O)CNCCCn1ccnc1; Phe(4-F) = N[C@@H](Cc1ccc(F)cc1)C(=O)O; X2 = CN1CCN(CCCN(CC(=O)[*:2])[*:1])CC1; 2Nal = N[C@@H](Cc1ccc2ccccc2c1)C(=O)O; Gly(N-2-aminoethyl) = NCCNCC(=O)O; Cit = NC(=O)NCCC[C@H](N)C(=O)O; NMeK = CN[C@@H](CCCCN)C(=O)O; Dab = NCC[C@H](N)C(=O)O

Tests used:
in vitro = details: human
Experimental: Each peptide concentration was assayed in triplicate. […] Wells were then washed once with PBS and subsequently 100 μl MTT reagent (0.5 mg/mL in medium RPMI1640 and, respectively, DMEM) was added to the wells. This was incubated at 37° C. for 2 hours and subsequently the medium was aspirated and 100 μl isopropanol was added to each well. […] For each concentration averages were calculated from triplicates. The percentage of growth was calculated as follows: (OD595peptide-OD595Tz-OD595Empty well)/(OD595Tz-OD595Empty well)×100% and was plotted for each peptide concentration.
‘CCR5’ cells were cultured in DMEM medium with 4500 mg/ml glucose, 10% fetal bovine serum (FBS), supplemented with 50 U/ml Penicillin and 50 μg/ml Streptomycin (Pen/Strept.). Hut/4-3 cells were maintained in RPMI medium, 10% FBS, supplemented with Pen/Strept. and 10 mM HEPES. HELA cells and CCRF-CEM cells were maintained in RPMI1640 plus 5% FBS, Pen/Strept and 2 mM L-Glutamine. Cos-7 cells were grown in DMEM medium with 4500 mg/ml glucose supplemented with 10% FCS, Pen/Strept. and 2 mM L-Glutamine. All cell lines were grown at 37° C. at 5% CO2.

[1] = test system: human red blood cells (hRBC); assay: Hemolysis; assay type: cell-based
Outline: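 Washed fresh human erythrocytes (20% v/v, about 0.9×10^9 cells/ml final) incubated with peptide at 100 μM for 1 h at 37° C. Supernatant diluted 20-fold and OD540 read. Percent hemolysis relative to 0.1% Triton X-100 in H2O (100%), with PBS alone as 0%.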

CXCR4 = CXCR4 (Homo sapiens, UniProt P61073); assay: Ca2+-assay method 2 (Flexstation, SDF-1 induced calcium mobilization); assay type: cell-based; set-up: expressed in transfected cells; host or cells: mouse pre-B cell line 300-19; details: method 2 (Ex. 54-160), mouse pre-B cell line 300-19 with human CXCR4, 10 nM SDF-1; read-out: IC50 (nM) Ca^2+ assay
Chain of CXCR4 (P61073 whole entry): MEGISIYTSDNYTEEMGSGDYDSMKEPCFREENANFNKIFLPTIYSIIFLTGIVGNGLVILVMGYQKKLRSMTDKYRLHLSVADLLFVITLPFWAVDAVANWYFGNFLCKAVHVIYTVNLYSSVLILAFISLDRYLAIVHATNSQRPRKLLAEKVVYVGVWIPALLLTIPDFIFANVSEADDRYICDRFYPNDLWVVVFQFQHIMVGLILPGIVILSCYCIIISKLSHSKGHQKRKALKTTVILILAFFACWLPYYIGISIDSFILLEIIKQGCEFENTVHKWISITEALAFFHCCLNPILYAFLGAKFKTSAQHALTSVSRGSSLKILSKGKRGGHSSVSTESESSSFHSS
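Wherever GI50 is given: MTT reduction read as absorbance at 595 nm, blank-corrected and expressed as percent growth relative to the time-zero cell reading, triplicate wells per concentration.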

| Structure (SMILES) | GI50 at 48 h (in vitro) [nM] | Hemolysis at 100 μM [1] [%] | IC50 (CXCR4) [nM] |
| --- | --- | --- | --- |
| N=C(N)NCCC[C@@H]1NC(=O)[C@@H]2CSSC[C@H](NC(=O)[C@H](Cc3c[nH]c4ccccc34)NC(=O)[C@H](CCCNC(=N)N)NC(=O)[C@H](CCCNC(=N)N)NC(=O)[C@H]3CCCN3C(=O)CNC1=O)C(=O)N[C@@H](Cc1ccc(O)cc1)C(=O)N[C@@H](CCCNC(N)=O)C(=O)N[C@@H](CCC(N)=O)C(=O)N1CCC[C@@H]1C(=O)N1CCC[C@H]1C(=O)N[C@@H](Cc1ccc(O)cc1)C(=O)N[C@@H](CCCNC(=N)N)C(=O)N[C@@H](CCCNC(N)=O)C(=O)N2 [Ex. 121] (cyclo(YR[Cit]CRG[dP]RRWCY[Cit]Q[dP]P); disulfide 4-11) | 79000 | 0 | 6.5 |
| N=C(N)NCCC[C@@H]1NC(=O)[C@@H]2CSSC[C@H](NC(=O)[C@H](Cc3c[nH]c4ccccc34)NC(=O)[C@H](CCCNC(=N)N)NC(=O)[C@H](Cc3ccc(F)cc3)NC(=O)[C@H]3CCCN3C(=O)CNC1=O)C(=O)N[C@@H](Cc1ccc(O)cc1)C(=O)N[C@@H](CCCNC(N)=O)C(=O)N[C@@H](CCCCN)C(=O)N1CCC[C@@H]1C(=O)N1CCC[C@H]1C(=O)N[C@@H](Cc1ccc(O)cc1)C(=O)N[C@@H](CCCNC(=N)N)C(=O)N[C@@H](CCCNC(N)=O)C(=O)N2 [Ex. 122] (cyclo(YR[Cit]CRG[dP][Phe(4-F)]RWCY[Cit]K[dP]P); disulfide 4-11) | 60000 | 0 | 8.8 |
| N=C(N)NCCC[C@@H]1NC(=O)[C@@H]2CSSC[C@H](NC(=O)[C@H](Cc3c[nH]c4ccccc34)NC(=O)[C@H](CCCNC(=N)N)NC(=O)[C@H](CCCNC(=N)N)NC(=O)[C@H]3CCCN3C(=O)CNC1=O)C(=O)N[C@@H](Cc1ccc(O)cc1)C(=O)N[C@@H](CCCNC(N)=O)C(=O)N[C@@H](CCCCN)C(=O)N1CCC[C@@H]1C(=O)N1CCC[C@H]1C(=O)N[C@@H](Cc1ccc(O)cc1)C(=O)N[C@@H](CCCNC(=N)N)C(=O)N[C@@H](CCCNC(N)=O)C(=O)N2 [Ex. 123] (cyclo(YR[Cit]CRG[dP]RRWCY[Cit]K[dP]P); disulfide 4-11) | 80000 | 0 | 10 |
| N=C(N)NCCC[C@@H]1NC(=O)CN(CCCn2ccnc2)C(=O)[C@H]2CCCN2C(=O)CNC(=O)[C@H](CCCNC(=N)N)NC(=O)[C@@H]2CSSC[C@H](NC(=O)[C@H](Cc3ccc4ccccc4c3)NC1=O)C(=O)N[C@@H](Cc1ccc(O)cc1)C(=O)N[C@@H](CCCNC(N)=O)C(=O)N[C@@H](CCCCN)C(=O)N1CCC[C@@H]1C(=O)N1CCC[C@H]1C(=O)N[C@@H](Cc1ccc(O)cc1)C(=O)N[C@@H](CCCNC(=N)N)C(=O)N[C@@H](CCCNC(N)=O)C(=O)N2 [Ex. 125] (cyclo(YR[Cit]CRG[dP][N(3-imidazol-1-ylpropyl)Gly]R[2Nal]CY[Cit]K[dP]P); disulfide 4-11) | > 100000 | 0 | 330 |
| CN1CCN(CCCN2CC(=O)N[C@@H](Cc3ccc4ccccc4c3)C(=O)N[C@H]3CSSC[C@H](NC(=O)[C@H](CCCNC(N)=O)NC(=O)[C@H](CCCNC(=N)N)NC(=O)[C@H](Cc4ccc(O)cc4)NC(=O)[C@@H]4CCCN4C(=O)[C@H]4CCCN4C(=O)[C@H](CCCCN)NC(=O)[C@H](CCCNC(N)=O)NC(=O)[C@H](Cc4ccc(O)cc4)NC3=O)C(=O)N[C@@H](CCCNC(=N)N)C(=O)NCC(=O)N3CCC[C@@H]3C(=O)N[C@@H](CCCNC(=N)N)C2=O)CC1 [Ex. 126] (cyclo(YR[Cit]CRG[dP]R[X2][2Nal]CY[Cit]K[dP]P); disulfide 4-11) | 85000 | 0 | 19.5 |
| CN1C(=O)[C@H](CCCNC(N)=O)NC(=O)[C@H](Cc2ccc(O)cc2)NC(=O)[C@@H]2CSSC[C@H](NC(=O)[C@H](CCCNC(N)=O)NC(=O)[C@H](CCCNC(=N)N)NC(=O)[C@H](Cc3ccc(O)cc3)NC(=O)[C@@H]3CCCN3C(=O)[C@H]3CCCN3C(=O)[C@@H]1CCCCN)C(=O)N[C@@H](CCCNC(=N)N)C(=O)NCC(=O)N1CCC[C@@H]1C(=O)N[C@@H](CCCNC(=N)N)C(=O)N[C@@H](CCCNC(=N)N)C(=O)N[C@@H](Cc1ccc3ccccc3c1)C(=O)N2 [Ex. 127] (cyclo(YR[Cit]CRG[dP]RR[2Nal]CY[Cit][NMeK][dP]P); disulfide 4-11) | 62000 | 0 | 52.2 |
| CN1CC(=O)N[C@@H](CCCCN)C(=O)N2CCC[C@@H]2C(=O)N2CCC[C@H]2C(=O)N[C@@H](Cc2ccc(O)cc2)C(=O)N[C@@H](CCCNC(=N)N)C(=O)N[C@@H](CCCNC(N)=O)C(=O)N[C@H]2CSSC[C@H](NC(=O)[C@H](Cc3ccc4ccccc4c3)NC(=O)[C@H](CCCNC(=N)N)NC(=O)[C@H](CCCNC(=N)N)NC(=O)[C@H]3CCCN3C(=O)CNC(=O)[C@H](CCCNC(=N)N)NC2=O)C(=O)N[C@@H](Cc2ccc(O)cc2)C1=O [Ex. 129] | 23000 | 0 | 10.9 |
| N=C(N)NCCC[C@@H]1NC(=O)[C@@H]2CSSC[C@H](NC(=O)[C@H](Cc3ccc4ccccc4c3)NC(=O)[C@H](CCCNC(=N)N)NC(=O)[C@H](CCCNC(=N)N)NC(=O)[C@H]3CCCN3C(=O)CNC1=O)C(=O)N[C@@H](Cc1ccc(O)cc1)C(=O)N[C@@H](CCCNC(N)=O)C(=O)N[C@@H](CCCCN)C(=O)N1CCC[C@@H]1C(=O)N1CCC[C@H]1C(=O)N[C@@H](Cc1ccc(O)cc1)C(=O)N[C@@H](CCCNC(=N)N)C(=O)N[C@@H](CCC(N)=O)C(=O)N2 [Ex. 130] (cyclo(YRQCRG[dP]RR[2Nal]CY[Cit]K[dP]P); disulfide 4-11) | 62000 | 0 | 4.1 |
| C[C@@H](O)[C@@H]1NC(=O)[C@H](CCCNC(=N)N)NC(=O)[C@H](Cc2ccc(O)cc2)NC(=O)[C@@H]2CCCN2C(=O)[C@H]2CCCN2C(=O)[C@H](CCCCN)NC(=O)[C@H](CCCNC(N)=O)NC(=O)[C@H](Cc2ccc(O)cc2)NC(=O)[C@@H]2CSSC[C@H](NC1=O)C(=O)N[C@@H](CCCNC(=N)N)C(=O)NCC(=O)N1CCC[C@@H]1C(=O)N[C@@H](CCCNC(=N)N)C(=O)N[C@@H](CCCNC(=N)N)C(=O)N[C@@H](Cc1ccc3ccccc3c1)C(=O)N2 [Ex. 131] (cyclo(YRTCRG[dP]RR[2Nal]CY[Cit]K[dP]P); disulfide 4-11) | 53000 | 0 | 2.4 |
| C[C@@H](O)[C@@H]1NC(=O)[C@H](Cc2ccc(O)cc2)NC(=O)[C@@H]2CSSC[C@H](NC(=O)[C@H](CCCNC(N)=O)NC(=O)[C@H](CCCNC(=N)N)NC(=O)[C@H](Cc3ccc(O)cc3)NC(=O)[C@@H]3CCCN3C(=O)[C@H]3CCCN3C(=O)[C@H](CCCCN)NC1=O)C(=O)N[C@@H](CCCNC(=N)N)C(=O)NCC(=O)N1CCC[C@@H]1C(=O)N[C@@H](CCCNC(=N)N)C(=O)N[C@@H](CCCNC(=N)N)C(=O)N[C@@H](Cc1ccc3ccccc3c1)C(=O)N2 [Ex. 133] (cyclo(YR[Cit]CRG[dP]RR[2Nal]CYTK[dP]P); disulfide 4-11) | 45000 | 0.1 | 5.3 |
| N=C(N)NCCC[C@@H]1NC(=O)[C@@H]2CSSC[C@H](NC(=O)[C@H](Cc3ccc4ccccc4c3)NC(=O)[C@H](CCCNC(=N)N)NC(=O)[C@H](CCN)NC(=O)[C@H]3CCCN3C(=O)CNC1=O)C(=O)N[C@@H](Cc1ccc(O)cc1)C(=O)N[C@@H](CCCNC(N)=O)C(=O)N[C@@H](CCCCN)C(=O)N1CCC[C@@H]1C(=O)N1CCC[C@H]1C(=O)N[C@@H](Cc1ccc(O)cc1)C(=O)N[C@@H](CCCNC(=N)N)C(=O)N[C@@H](CCCNC(N)=O)C(=O)N2 [Ex. 134] (cyclo(YR[Cit]CRG[dP][Dab]R[2Nal]CY[Cit]K[dP]P); disulfide 4-11) | 21000 | 0 | 1.7 |
| N=C(N)NCCC[C@@H]1NC(=O)[C@@H]2CSSC[C@H](NC(=O)[C@H](Cc3c[nH]c4ccccc34)NC(=O)[C@H](CCCNC(=N)N)NC(=O)[C@H](CCCNC(N)=O)NC(=O)[C@H]3CCCN3C(=O)CNC1=O)C(=O)N[C@@H](Cc1ccc(O)cc1)C(=O)N[C@@H](CCCNC(N)=O)C(=O)N[C@@H](CCCCN)C(=O)N1CCC[C@@H]1C(=O)N1CCC[C@H]1C(=O)N[C@@H](Cc1ccc(O)cc1)C(=O)N[C@@H](CCCNC(=N)N)C(=O)N[C@@H](CCCNC(N)=O)C(=O)N2 [Ex. 136] (cyclo(YR[Cit]CRG[dP][Cit]RWCY[Cit]K[dP]P); disulfide 4-11) | > 100000 | 0 | 4.1 |
| N=C(N)NCCC[C@@H]1NC(=O)[C@@H]2CSSC[C@H](NC(=O)[C@H](Cc3c[nH]c4ccccc34)NC(=O)[C@H](CCCNC(=N)N)NC(=O)[C@H](Cc3c[nH]cn3)NC(=O)[C@H]3CCCN3C(=O)CNC1=O)C(=O)N[C@@H](Cc1ccc(O)cc1)C(=O)N[C@@H](CCCNC(N)=O)C(=O)N[C@@H](CCCCN)C(=O)N1CCC[C@@H]1C(=O)N1CCC[C@H]1C(=O)N[C@@H](Cc1ccc(O)cc1)C(=O)N[C@@H](CCCNC(=N)N)C(=O)N[C@@H](CCCNC(N)=O)C(=O)N2 [Ex. 137] (cyclo(YR[Cit]CRG[dP]HRWCY[Cit]K[dP]P); disulfide 4-11) | 79000 | 0.5 | 1.28 |
| N=C(N)NCCC[C@@H]1NC(=O)[C@H](CCCNC(=N)N)NC(=O)[C@H]2CCCN2C(=O)CNC(=O)CN(CCN)C(=O)[C@@H]2CSSC[C@H](NC(=O)[C@H](Cc3ccc4ccccc4c3)NC1=O)C(=O)N[C@@H](Cc1ccc(O)cc1)C(=O)N[C@@H](CCCNC(N)=O)C(=O)N[C@@H](CCCCN)C(=O)N1CCC[C@@H]1C(=O)N1CCC[C@H]1C(=O)N[C@@H](Cc1ccc(O)cc1)C(=O)N[C@@H](CCCNC(=N)N)C(=O)N[C@@H](CCCNC(N)=O)C(=O)N2 [Ex. 138] (cyclo(YR[Cit]C[Gly(N-2-aminoethyl)]G[dP]RR[2Nal]CY[Cit]K[dP]P); disulfide 4-11) | 18000 | 0 | 63 |
